This note sets out measurements from ChEMBL document CHEMBL1201862, “PubChem BioAssay data set” (2004).

One test concerns the target T1, Caspase-3 (Homo sapiens, UniProt P42574).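 Also: Dose-response selectivity test against caspase-3 for candidate inhibitors of sentrin-specific proteases (SENPs).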
T1 sequence (P42574 whole entry): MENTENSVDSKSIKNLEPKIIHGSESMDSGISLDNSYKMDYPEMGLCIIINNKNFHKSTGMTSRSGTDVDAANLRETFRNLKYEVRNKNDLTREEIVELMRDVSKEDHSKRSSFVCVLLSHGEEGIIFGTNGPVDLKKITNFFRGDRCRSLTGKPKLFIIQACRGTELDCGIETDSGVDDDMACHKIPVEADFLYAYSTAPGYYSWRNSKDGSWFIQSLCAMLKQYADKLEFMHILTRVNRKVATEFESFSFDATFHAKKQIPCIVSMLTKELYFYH
It counts as functional.

For test [1], the target named is T2, Sentrin-specific protease 7 (Homo sapiens, UniProt Q9BQF6).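 Also: Luminescence-based dose-response confirmation of ultra-high-throughput screening hits, measuring inhibition of SENP7.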
T2 sequence (Q9BQF6 whole entry): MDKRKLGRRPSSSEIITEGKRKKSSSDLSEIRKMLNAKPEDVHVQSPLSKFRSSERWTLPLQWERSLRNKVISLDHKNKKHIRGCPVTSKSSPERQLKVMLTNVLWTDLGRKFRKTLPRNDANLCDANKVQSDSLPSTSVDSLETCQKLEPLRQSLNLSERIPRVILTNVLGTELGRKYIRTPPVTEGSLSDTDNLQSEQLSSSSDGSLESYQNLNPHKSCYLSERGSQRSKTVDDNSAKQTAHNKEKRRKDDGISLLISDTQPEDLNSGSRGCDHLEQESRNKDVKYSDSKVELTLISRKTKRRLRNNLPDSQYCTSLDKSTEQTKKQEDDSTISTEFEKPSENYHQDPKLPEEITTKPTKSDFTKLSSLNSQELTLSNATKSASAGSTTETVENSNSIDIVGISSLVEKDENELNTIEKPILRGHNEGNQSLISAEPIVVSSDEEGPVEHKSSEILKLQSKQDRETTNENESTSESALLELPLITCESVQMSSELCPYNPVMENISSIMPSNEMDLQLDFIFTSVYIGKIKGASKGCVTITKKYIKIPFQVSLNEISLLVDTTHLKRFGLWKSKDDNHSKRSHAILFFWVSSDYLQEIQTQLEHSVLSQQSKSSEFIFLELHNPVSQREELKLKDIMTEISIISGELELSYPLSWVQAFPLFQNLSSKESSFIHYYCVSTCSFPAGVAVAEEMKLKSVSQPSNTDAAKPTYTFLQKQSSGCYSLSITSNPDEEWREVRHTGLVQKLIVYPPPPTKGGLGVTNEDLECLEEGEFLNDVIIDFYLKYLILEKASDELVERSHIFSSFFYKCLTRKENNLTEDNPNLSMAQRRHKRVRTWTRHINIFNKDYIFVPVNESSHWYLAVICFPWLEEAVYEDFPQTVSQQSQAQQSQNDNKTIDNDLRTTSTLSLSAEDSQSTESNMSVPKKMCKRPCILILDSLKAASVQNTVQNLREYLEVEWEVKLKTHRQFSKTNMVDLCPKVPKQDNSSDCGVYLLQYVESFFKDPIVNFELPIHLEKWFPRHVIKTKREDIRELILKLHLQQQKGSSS
It counts as functional.

For test [2], the target named is T3, Sentrin-specific protease 8 (Homo sapiens, UniProt Q96LD8).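 Also: luminescence read-out of SENP8 inhibition, dose-response confirmation following an ultra-high-throughput screen.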
T3 sequence (Q96LD8 whole entry): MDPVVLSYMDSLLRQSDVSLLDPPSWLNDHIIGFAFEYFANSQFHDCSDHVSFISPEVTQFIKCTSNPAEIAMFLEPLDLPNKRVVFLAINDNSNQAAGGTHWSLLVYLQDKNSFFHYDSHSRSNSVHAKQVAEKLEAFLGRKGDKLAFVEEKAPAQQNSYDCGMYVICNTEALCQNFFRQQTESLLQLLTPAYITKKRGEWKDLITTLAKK
It counts as functional.

For test [3], the target named is T4, Sentrin-specific protease 6 (Homo sapiens, UniProt Q9GZR1).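 Also: Luminescence-based dose-response confirmatory assay of SENP6 inhibition, following up an ultra-high-throughput screen.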
T4 sequence (Q9GZR1 whole entry): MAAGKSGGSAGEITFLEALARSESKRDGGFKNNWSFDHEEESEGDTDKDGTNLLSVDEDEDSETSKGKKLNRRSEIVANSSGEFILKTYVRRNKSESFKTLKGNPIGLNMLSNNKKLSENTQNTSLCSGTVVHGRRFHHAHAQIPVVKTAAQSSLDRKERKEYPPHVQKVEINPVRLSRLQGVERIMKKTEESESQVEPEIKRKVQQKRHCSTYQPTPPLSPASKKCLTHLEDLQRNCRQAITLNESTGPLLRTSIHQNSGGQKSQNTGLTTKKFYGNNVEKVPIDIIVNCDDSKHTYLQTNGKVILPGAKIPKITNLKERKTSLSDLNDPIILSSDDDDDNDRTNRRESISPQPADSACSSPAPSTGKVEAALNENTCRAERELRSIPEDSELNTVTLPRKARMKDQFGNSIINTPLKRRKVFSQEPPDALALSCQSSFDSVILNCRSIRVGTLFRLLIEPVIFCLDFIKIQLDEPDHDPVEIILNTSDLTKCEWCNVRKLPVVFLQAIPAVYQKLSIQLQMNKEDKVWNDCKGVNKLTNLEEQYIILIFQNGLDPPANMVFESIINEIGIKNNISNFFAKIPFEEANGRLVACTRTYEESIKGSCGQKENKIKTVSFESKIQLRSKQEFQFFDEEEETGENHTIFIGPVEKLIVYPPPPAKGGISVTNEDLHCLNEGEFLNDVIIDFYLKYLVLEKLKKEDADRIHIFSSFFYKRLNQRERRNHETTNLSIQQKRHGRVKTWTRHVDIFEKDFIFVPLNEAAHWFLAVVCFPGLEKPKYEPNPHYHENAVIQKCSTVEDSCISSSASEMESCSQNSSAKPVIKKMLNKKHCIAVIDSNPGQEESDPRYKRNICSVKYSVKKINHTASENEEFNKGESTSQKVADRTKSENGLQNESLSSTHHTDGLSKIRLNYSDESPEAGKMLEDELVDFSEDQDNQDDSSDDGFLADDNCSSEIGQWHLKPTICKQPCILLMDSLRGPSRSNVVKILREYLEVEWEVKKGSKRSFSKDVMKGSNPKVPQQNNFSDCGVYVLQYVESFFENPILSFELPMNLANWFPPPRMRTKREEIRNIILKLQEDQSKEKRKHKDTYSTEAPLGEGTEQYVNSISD
Type of test: functional.

The target of test [4] is T5, Replicative DNA helicase DnaB (Mycobacterium tuberculosis, UniProt P9WMR3).
T5 sequence (P9WMR3 whole entry): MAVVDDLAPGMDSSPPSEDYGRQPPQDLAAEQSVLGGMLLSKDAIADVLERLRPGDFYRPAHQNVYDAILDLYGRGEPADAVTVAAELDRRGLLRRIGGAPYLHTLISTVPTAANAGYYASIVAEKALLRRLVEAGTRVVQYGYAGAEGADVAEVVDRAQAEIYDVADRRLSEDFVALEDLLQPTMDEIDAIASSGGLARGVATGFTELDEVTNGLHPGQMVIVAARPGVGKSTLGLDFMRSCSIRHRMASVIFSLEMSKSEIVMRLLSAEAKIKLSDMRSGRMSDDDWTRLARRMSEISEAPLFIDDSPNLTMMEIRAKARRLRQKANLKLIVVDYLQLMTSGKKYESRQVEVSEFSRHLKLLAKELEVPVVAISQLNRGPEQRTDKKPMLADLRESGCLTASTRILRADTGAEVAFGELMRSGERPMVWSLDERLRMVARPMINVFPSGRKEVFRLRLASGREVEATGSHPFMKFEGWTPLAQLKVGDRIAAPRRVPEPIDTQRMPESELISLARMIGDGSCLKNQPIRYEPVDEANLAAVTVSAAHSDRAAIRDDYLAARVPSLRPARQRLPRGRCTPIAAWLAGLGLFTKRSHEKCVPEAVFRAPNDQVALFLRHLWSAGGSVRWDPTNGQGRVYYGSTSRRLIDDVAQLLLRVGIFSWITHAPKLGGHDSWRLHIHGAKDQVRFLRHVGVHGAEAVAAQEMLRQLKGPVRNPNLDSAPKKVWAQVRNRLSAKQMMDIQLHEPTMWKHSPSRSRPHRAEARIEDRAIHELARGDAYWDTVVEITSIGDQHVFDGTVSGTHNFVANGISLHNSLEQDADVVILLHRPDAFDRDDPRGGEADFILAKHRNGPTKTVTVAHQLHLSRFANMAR
Nature of the test: DnaB intein splicing inhibitors, dose response, biochemical, cell-free fluorescence (AID 449749). It counts as functional.

A short description of test [5]: microbe, parasite or virus in culture. It counts as functional. The note with it: Mycobacterium tuberculosis.
For the next test, the target named is T6, Protein RecA (Mycobacterium tuberculosis, UniProt P9WHJ3).
T6 sequence (P9WHJ3 whole entry): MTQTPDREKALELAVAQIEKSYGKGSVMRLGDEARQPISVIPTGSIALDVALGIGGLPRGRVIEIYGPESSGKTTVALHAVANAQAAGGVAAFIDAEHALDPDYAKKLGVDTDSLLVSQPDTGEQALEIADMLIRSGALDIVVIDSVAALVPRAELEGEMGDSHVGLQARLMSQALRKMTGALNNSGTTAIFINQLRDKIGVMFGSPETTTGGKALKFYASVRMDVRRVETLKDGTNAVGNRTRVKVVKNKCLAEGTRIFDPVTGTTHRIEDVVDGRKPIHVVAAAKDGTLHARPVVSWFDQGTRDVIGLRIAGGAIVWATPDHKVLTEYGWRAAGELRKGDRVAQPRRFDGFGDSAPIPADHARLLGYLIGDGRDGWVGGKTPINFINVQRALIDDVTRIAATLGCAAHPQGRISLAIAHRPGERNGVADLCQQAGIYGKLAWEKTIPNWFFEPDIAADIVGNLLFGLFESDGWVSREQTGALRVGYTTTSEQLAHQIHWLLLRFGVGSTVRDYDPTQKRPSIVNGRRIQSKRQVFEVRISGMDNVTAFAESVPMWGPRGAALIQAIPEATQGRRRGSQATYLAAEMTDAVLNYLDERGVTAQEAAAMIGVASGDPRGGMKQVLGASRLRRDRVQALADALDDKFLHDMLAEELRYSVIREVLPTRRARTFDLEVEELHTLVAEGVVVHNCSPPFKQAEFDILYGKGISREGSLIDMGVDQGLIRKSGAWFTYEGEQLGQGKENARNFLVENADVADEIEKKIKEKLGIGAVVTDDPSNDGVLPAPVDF
Nature of the test: Fluorescence Cell-Free Homogeneous Dose Retest to Identify Inhibitors of RecA-Intein Splicing Activity. [Related pubchem assays (depositor defined):AID2097, AID2223, AID489010, AID492950]. It counts as functional.

A short description of test [6]: NIH-3T3 fibroblast cytotoxicity, dose response, cytotoxicity control, cell-based, fluorescence, Alamar Blue, secondary assay (AID 2327).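 Also: NIH-3T3 mouse fibroblasts cultured with fluconazole at 8 µg/mL.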 It counts as functional. For orientation: Resazurin is reduced to fluorescent resorufin, in cell work by metabolically active cells.
For a further test, the system named is H4. Nature of the test: Luminescence Cell-Based Dose Response HTS to Identify Activators of 5'UTR Stem-Loop Driven Prion Protein mRNA Translation in H4 Neuroglioblastoma Cells. [Related pubchem assays: 1829 (Project Summary), 1814 (Primary HTS)]. Type of test: functional. The note with it: Homo sapiens.
A short description of test [7]: Luminescence Cell-Based Dose Confirmation HTS to Identify Inhibitors of Platelet Dense Granule Release. [Related pubchem assays: 1663 (Primary HTS), 1678 (Summary of Project)]. It counts as functional.
Test [8] is described as follows: viability of PTEN-deleted HCT116 cells – cell-based, HCT116 PTEN knockout, dose response (AID 1047).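 Also: HCT116 colon tumor cells with PTEN knocked out; cells exposed to compound for 60 hours before readout; potency for loss of cell viability measured by luminescence.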 Type of test: functional.
Test [9] is described as follows: Luminescence Cell-Based Dose Confirmation HTS to Identify Activators of 5'UTR Stem-Loop Driven Alpha-Synuclein mRNA Translation in H4 Neuroglioblastoma Cells. [Related pubchem assays: 1829 (Project Summary), 1814 (Primary HTS)]. Type of test: functional.
The target of test [10] is Luciferin 4-monooxygenase (Photinus pyralis, UniProt P08659). In words: inhibition of purified Photinus pyralis luciferase – biochemical, luminescence, dose response (AID 1891).
The nature of test [11]: viability of HCT116 lacking mutant beta-catenin – cell-based, human colon tumor, dose response (AID 1045).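 Also: HCT116 colon tumor cells with beta catenin knocked out; cells exposed to compound for 60 hours.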 Type of test: functional.
Test [12] in a line: Luminescence Cell-Based Dose Response HTS to Identify Activators of Luciferase Translation or Activity in H4 […] Cells. [Related pubchem assays: 1829 (Project Summary), 1814 (Primary HTS)]. Type of test: functional.

The source made the active and inactive calls.

Sequence of Luciferin 4-monooxygenase (P08659 whole entry): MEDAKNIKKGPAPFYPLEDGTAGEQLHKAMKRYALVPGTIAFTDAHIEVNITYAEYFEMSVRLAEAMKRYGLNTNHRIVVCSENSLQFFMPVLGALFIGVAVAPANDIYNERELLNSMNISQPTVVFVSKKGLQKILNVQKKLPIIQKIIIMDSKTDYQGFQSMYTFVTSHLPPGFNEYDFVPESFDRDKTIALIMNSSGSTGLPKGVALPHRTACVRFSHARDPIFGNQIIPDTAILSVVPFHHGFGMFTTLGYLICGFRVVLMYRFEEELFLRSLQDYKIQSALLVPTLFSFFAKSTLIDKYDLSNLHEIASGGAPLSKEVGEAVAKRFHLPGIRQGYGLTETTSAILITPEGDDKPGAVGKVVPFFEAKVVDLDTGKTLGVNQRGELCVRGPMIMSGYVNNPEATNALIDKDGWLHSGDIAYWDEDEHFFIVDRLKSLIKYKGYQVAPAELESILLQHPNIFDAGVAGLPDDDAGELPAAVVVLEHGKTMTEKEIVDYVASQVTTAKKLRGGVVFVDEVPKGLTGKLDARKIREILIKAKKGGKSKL

A word on the IC50: it is the concentration that gives 50% inhibition. Consider `Brc1c(-c2ccccc2)nc2n1Cc1ccccc1-2`, for which the IC50 on Caspase-3 is 15 µM (active); in [1], 5.23 µM (active); in test [2], 7.57 µM (active); in test [3], 6.75 µM (active).

As a reminder, the AC50 is the concentration giving half of the maximal activity seen. As a reminder, the EC50 is the concentration at which the effect is half-maximal. For `CC(C)(C)c1csc(NC(=O)c2c(F)c(F)c(F)c(F)c2F)n1`, the AC50 in [4] was 26 µM (active). Also, the CC50 in test [5] is 34 µM (active). For the same molecule, on Protein RecA, the EC50 is 18.4 µM (active).

As to `CCS(=O)(=O)c1ccc(-c2cccc(NC(=O)COc3ccc(Cl)cc3)c2)nn1`, in test [6], the EC50 was > 150 µM (inactive).

With `O=C(OCc1ccccc1Cl)c1cccnc1Cl`, the IC50 on Caspase-3 is 23.5 µM (active); in test [1], 11.8 µM (active); in [2], 27.3 µM (active); in test [3], 36.6 µM (active).

With `Clc1cccc(-c2ccc(-c3nc4ccccn4c3NCc3ccccc3)cc2)c1`, the IC50 is 12.9 µM (active) at Caspase-3, 7.22 µM (active) in [1], 18 µM (active) in [2] and 9.6 µM (active) in test [3].

For `CCOC(=O)/C(C#N)=C/c1ccc(N2CCCCC2)cc1`, the IC50 is 23.4 µM (active) on Caspase-3, 7.1 µM (active) in [1], 31.6 µM (active) in test [2] and 41.4 µM (active) in [3].

For `O=C(Nc1ccccc1)Nc1ccccc1C(=O)NCc1ccccc1`, the IC50 is 39.4 µM (active) at Caspase-3, 6.13 µM (active) in test [1], > 100 µM (inactive) in test [2] and > 100 µM (inactive) in [3].

On to `Cc1ccc2[nH]c(/C(C#N)=C/c3c[nH]nc3-c3ccc(F)cc3)nc2c1`, for which the EC50 is > 120 µM (not active) in the test on H4; 46.2 µM (active) in test [7]; 7.74 µM (active) in [8]; > 120 µM (not active) in test [9]; > 112 µM (not active) in test [10]; 9.64 µM (active) in test [11]. In [12], the EC50 is 5.96 µM (active). In addition, in test [5], the CC50 was 26.9 µM (active).
